Assay in all cases: G' assay (10 uM PL peptide), results of TABLE 7 and TABLE 12
Common to all, as to assay type: binding

Experiment [1] addresses T1, PDZ protein (GST-PDZ fusion) (Homo sapiens, UniProt Q92796).
T1 construct: made in house; host or cells: E. coli (DH5alpha, BL21 or JM109)
T1 sequence (Q92796 1-817): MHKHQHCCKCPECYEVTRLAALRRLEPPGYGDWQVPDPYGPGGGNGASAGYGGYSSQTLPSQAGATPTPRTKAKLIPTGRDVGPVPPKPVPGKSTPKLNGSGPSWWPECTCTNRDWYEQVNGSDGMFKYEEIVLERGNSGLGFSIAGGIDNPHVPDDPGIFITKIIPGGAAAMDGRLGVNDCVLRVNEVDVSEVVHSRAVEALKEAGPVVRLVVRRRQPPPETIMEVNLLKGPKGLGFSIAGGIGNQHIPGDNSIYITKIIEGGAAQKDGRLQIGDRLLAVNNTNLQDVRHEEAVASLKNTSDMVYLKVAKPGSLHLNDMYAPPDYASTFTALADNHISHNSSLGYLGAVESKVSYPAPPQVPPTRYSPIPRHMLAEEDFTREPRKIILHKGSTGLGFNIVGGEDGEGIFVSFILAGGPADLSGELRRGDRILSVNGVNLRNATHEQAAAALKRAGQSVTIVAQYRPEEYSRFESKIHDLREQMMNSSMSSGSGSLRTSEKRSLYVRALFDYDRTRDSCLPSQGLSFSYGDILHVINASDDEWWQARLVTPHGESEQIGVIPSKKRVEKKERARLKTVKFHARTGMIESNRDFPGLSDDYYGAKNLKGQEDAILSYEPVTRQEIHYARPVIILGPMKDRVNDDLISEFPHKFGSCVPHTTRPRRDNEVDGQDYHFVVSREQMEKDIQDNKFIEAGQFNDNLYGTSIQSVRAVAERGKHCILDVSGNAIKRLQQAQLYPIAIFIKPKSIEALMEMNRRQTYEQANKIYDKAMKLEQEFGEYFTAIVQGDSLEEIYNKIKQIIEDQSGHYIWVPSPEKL
Particulars: PDZ NeDLG. The procedure, abridged: (§1)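 Binding classes derive from A450 nm of bound biotin-tagged PL peptide. A score of 5 needs A450 above 4 in more than two repeats.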

Experiment [2] deals with T2, PDZ protein (GST-PDZ fusion) (Homo sapiens, UniProt P57105).
T2 construct: made in house; host or cells: E. coli (DH5alpha, BL21 or JM109)
T2 sequence (P57105 1-145): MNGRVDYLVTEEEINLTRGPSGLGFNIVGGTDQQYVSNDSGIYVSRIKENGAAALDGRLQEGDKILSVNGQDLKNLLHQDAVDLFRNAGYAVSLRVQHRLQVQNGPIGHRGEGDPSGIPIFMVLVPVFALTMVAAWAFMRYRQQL
Particulars: PDZ Outer Membrane, PDZ Domain 1. The method in brief: as §1

Experiment [3] has as its target T3, PDZ protein (GST-PDZ fusion) (Homo sapiens, UniProt Q15700).
T3 construct: made in house; host or cells: E. coli (DH5alpha, BL21 or JM109)
The procedure, abridged: as §1

Ends that are not written are not given here. Peptide text beside a SMILES is read from it. * marks the point of attachment. Biotin = O=C1N[C@H]2[C@H](CS[C@H]2CCCCC(=O)*)N1

T3 sequence (Q15700 whole entry, the tested form may be a part): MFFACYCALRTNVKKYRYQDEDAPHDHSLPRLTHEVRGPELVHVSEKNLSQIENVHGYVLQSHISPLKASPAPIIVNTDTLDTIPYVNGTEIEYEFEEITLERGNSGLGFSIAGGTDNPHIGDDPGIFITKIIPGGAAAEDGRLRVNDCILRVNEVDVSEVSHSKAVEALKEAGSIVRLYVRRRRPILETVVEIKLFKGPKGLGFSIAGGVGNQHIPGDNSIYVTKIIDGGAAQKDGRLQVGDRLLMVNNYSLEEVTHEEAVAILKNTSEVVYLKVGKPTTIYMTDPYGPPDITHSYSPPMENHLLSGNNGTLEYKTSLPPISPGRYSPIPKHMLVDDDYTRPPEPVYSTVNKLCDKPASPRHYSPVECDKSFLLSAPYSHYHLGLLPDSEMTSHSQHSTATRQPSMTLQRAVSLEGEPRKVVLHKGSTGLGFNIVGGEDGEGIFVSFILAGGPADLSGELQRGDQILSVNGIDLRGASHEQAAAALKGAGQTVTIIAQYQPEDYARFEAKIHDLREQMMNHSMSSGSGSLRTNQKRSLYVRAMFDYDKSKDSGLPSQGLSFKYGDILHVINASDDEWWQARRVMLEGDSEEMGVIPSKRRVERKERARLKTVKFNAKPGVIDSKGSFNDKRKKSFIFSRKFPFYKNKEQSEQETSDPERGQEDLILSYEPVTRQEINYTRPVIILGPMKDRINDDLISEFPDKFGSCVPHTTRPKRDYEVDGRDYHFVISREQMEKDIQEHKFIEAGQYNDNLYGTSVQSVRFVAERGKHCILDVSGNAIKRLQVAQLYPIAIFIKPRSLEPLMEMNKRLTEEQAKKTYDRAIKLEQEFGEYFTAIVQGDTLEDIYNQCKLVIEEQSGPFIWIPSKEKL

Consider `CC[C@H](C)[C@H](NC(=O)[C@H](Cc1c[nH]cn1)NC(=O)[C@H](C)NC(=O)[C@H](C)NC(=O)[C@H](CO)NC(=O)[C@@H]1CCCN1C(=O)[C@H](CCCNC(=N)N)NC(=O)[C@H](CC(=O)O)NC(=O)[C@H](CCCCN)NC(=O)[C@@H]1CCCN1C(=O)[C@H](CC(=O)O)NC(=O)[C@H](CCC(=O)O)NC(=O)CCCC[C@@H]1SC[C@@H]2NC(=O)N[C@@H]21)C(=O)N[C@H](C(=O)N[C@@H](CCC(=O)O)C(=O)N[C@@H](C)C(=O)N[C@@H](CC(C)C)C(=O)N[C@@H](CCC(=O)O)C(=O)N[C@H](C(=O)N[C@@H](CC(=O)O)C(=O)N[C@H](C(=O)O)C(C)C)[C@@H](C)O)C(C)C` [PDZ-binding kinase (PBK)] (Biotin-EDPKDRPSAAHIVEALETDV-OH; C-terminus assumed), for which the Classification in experiment [1] (PDZ Domain 1, 2) is on record as 1 (A450 nm 0-1).

`CC(C)C[C@H](NC(=O)CNC(=O)[C@@H](NC(=O)[C@H](CO)NC(=O)[C@H](CC(N)=O)NC(=O)[C@H](Cc1ccccc1)NC(=O)CNC(=O)[C@H](C)NC(=O)[C@H](C)NC(=O)[C@H](Cc1ccccc1)NC(=O)[C@@H](NC(=O)CCCC[C@@H]1SC[C@@H]2NC(=O)N[C@@H]21)[C@@H](C)O)[C@@H](C)O)C(=O)N1CCC[C@H]1C(=O)N[C@@H](Cc1c[nH]cn1)C(=O)N[C@@H](CO)C(=O)N[C@H](C(=O)N[C@H](C(=O)N[C@@H](CCCNC(=N)N)C(=O)N[C@H](C(=O)O)C(C)C)[C@@H](C)O)[C@@H](C)O` [Neuroligin] (Biotin-TFAAGFNSTGLPHSTTRV-OH; C-terminus assumed): the Classification in experiment [1] (PDZ Domain 1, 2) is recorded as 1 (A450 nm 0-1); in experiment [1] (PDZ Domain 3) it was 1 (A450 nm 0-1).

`CC[C@H](C)[C@H](NC(=O)[C@H](CCC(=O)O)NC(=O)[C@H](CO)NC(=O)[C@H](CCC(=O)O)NC(=O)[C@H](CCCNC(=N)N)NC(=O)[C@H](CCCNC(=N)N)NC(=O)[C@H](CC(C)C)NC(=O)[C@@H]1CCCN1C(=O)[C@H](CCCNC(=N)N)NC(=O)[C@@H]1CCCN1C(=O)[C@H](CCC(=O)O)NC(=O)[C@H](CC(C)C)NC(=O)[C@@H]1CCCN1C(=O)[C@@H](NC(=O)[C@H](CO)NC(=O)[C@H](C)NC(=O)[C@H](CCC(N)=O)NC(=O)[C@H](CC(N)=O)NC(=O)[C@H](Cc1c[nH]cn1)NC(=O)[C@H](CC(C)C)NC(=O)CCCC[C@@H]1SC[C@@H]2NC(=O)N[C@@H]21)C(C)C)C(=O)O` [Kir2.1 (inwardly rect. K+ channel)] (Biotin-LHNQASVPLEPRPLRRESEI-OH; C-terminus assumed): the Classification is reported as 4 (A450 nm 3-4) in experiment [2]; 1 (A450 nm 0-1) in experiment [1] (PDZ Domain 1, 2); 1 (A450 nm 0-1) in experiment [3] (PDZ DLG2, PDZ Domain 2).

For the compound `CC[C@H](C)[C@H](NC(=O)[C@H](CCC(=O)O)NC(=O)[C@H](CC(N)=O)NC(=O)[C@H](CCCNC(=N)N)NC(=O)[C@H](Cc1ccccc1)NC(=O)[C@H](CC(N)=O)NC(=O)[C@H](CO)NC(=O)[C@H](CC(N)=O)NC(=O)[C@H](CCC(=O)O)NC(=O)[C@H](CO)NC(=O)[C@H](CC(=O)O)NC(=O)[C@H](CO)NC(=O)[C@@H](NC(=O)[C@@H](NC(=O)[C@H](CC(=O)O)NC(=O)[C@H](CCCCN)NC(=O)CCCC[C@@H]1SC[C@@H]2NC(=O)N[C@@H]21)[C@@H](C)CC)[C@@H](C)O)C(=O)N[C@@H](CCC(N)=O)C(=O)N[C@@H](CO)C(=O)N[C@@H](CC(C)C)C(=O)N[C@H](C(=O)O)C(C)C` [CD95] (Biotin-KDITSDSENSNFRNEIQSLV-OH; C-terminus assumed), the Classification is reported as 1 (A450 nm 0-1) in experiment [2] and 1 (A450 nm 0-1) in experiment [3] (PDZ DLG2, PDZ Domain 2).

Consider “RNIEEVYVGGKQVVPFSSSV (Biotin-RNIEEVYVGGKQVVPFSSSV) [Nedasin (s-form)]”, for which the Classification in experiment [1] (PDZ Domain 1, 2) is on record as 2 (A450 nm 1-2).

As to `CC[C@H](C)[C@H](NC(=O)[C@H](CO)NC(=O)[C@H](CCC(=O)O)NC(=O)[C@H](Cc1ccc(O)cc1)NC(=O)[C@H](CC(=O)O)NC(=O)[C@H](CC(N)=O)NC(=O)[C@H](CCC(=O)O)NC(=O)[C@H](CCCCN)NC(=O)CCCC[C@@H]1SC[C@@H]2NC(=O)N[C@@H]21)C(=O)N[C@@H](CO)C(=O)N[C@@H](CC(=O)O)C(=O)N[C@@H](CC(C)C)C(=O)N[C@@H](CCC(N)=O)C(=O)N[C@@H](CCC(N)=O)C(=O)NCC(=O)N[C@@H](CCCNC(=N)N)C(=O)N[C@@H](CC(=O)O)C(=O)N[C@H](C(=O)N[C@H](C(=O)N[C@@H](CCCNC(=N)N)C(=O)N[C@@H](CC(C)C)C(=O)O)[C@@H](C)O)[C@@H](C)CC` [PAG] (Biotin-KENDYESISDLQQGRDITRL-OH; C-terminus assumed), the Classification in experiment [2] is reported as 2 (A450 nm 1-2).

For the compound `CC[C@H](C)[C@H](NC(=O)[C@H](CO)NC(=O)[C@@H](NC(=O)[C@H](Cc1ccccc1)NC(=O)[C@H](CO)NC(=O)CCCC[C@@H]1SC[C@@H]2NC(=O)N[C@@H]21)[C@@H](C)O)C(=O)N[C@@H](CC(C)C)C(=O)N[C@H](C(=O)N[C@@H](CS)C(=O)N[C@@H](Cc1c[nH]cn1)C(=O)N[C@@H](CCC(N)=O)C(=O)N[C@@H](CCCNC(=N)N)C(=O)N[C@@H](CCCNC(=N)N)C(=O)N[C@H](C(=O)N[C@@H](CCC(N)=O)C(=O)N[C@@H](CCCNC(=N)N)C(=O)N[C@@H](CCCCN)C(=O)N[C@@H](CCC(=O)O)C(=O)N[C@H](C(=O)N[C@H](C(=O)N[C@@H](C)C(=O)O)C(C)C)[C@@H](C)O)[C@@H](C)O)[C@@H](C)O` [GluR5-2 (rat)], the Classification in experiment [1] (PDZ Domain 1, 2) was 5 (A450 nm of 4 more than 2× repeated); in experiment [1] (PDZ Domain 2), 1 (A450 nm 0-1); in experiment [1] (PDZ Domain 3), 2 (A450 nm 1-2); in experiment [3] (PDZ DLG2, PDZ Domain 1), 1 (A450 nm 0-1); in experiment [3] (PDZ DLG2, PDZ Domain 2), 1 (A450 nm 0-1).

Turning to “SLKPGTVLPPPPYRHRNTVV (Biotin-SLKPGTVLPPPPYRHRNTVV) [ErbB-4 receptor]”, in experiment [1] (PDZ Domain 1, 2), the Classification is listed as 1 (A450 nm 0-1).

Consider “ISGTPTSTMVHGMTSSSSVV (Biotin-ISGTPTSTMVHGMTSSSSVV) [Clasp-2]”, for which the Classification in experiment [2] and in experiment [1] (PDZ Domain 2) was 1 (A450 nm 0-1) in each case.

In the case of “GGGGGSGGGGGSGIESVKI [GLUR2 (glutamate receptor 2-modified)]”, the Classification was 2 (A450 nm 1-2) in experiment [1] (PDZ Domain 1, 2) and 1 (A450 nm 0-1) in experiment [3] (PDZ DLG2, PDZ Domain 2).

`CC[C@H](C)[C@H](NC(=O)[C@H](CC(=O)O)NC(=O)[C@H](CCC(=O)O)NC(=O)[C@H](CCCNC(=N)N)NC(=O)[C@@H](NC(=O)CCCC[C@@H]1SC[C@@H]2NC(=O)N[C@@H]21)[C@@H](C)O)C(=O)N[C@@H](Cc1ccc(O)cc1)C(=O)N[C@H](C(=O)N[C@@H](CC(N)=O)C(=O)N[C@@H](Cc1ccc(O)cc1)C(=O)N1CCC[C@H]1C(=O)N[C@H](C(=O)N[C@@H](Cc1ccccc1)C(=O)N[C@@H](CO)C(=O)N[C@@H](CCCNC(=N)N)C(=O)N[C@@H](CCCNC(=N)N)C(=O)N1CCC[C@H]1C(=O)N[C@@H](CCCCN)C(=O)N[C@H](C(=O)N[C@@H](CCCNC(=N)N)C(=O)N[C@H](C(=O)O)C(C)C)[C@@H](C)O)[C@@H](C)O)C(C)C` [DNAM-1] (Biotin-TREDIYVNYPTFSRRPKTRV-OH; C-terminus assumed): the Classification in experiment [2] is given as 1 (A450 nm 0-1).

As to “ELLQFCRTPNPALKNGQYWV (Biotin-ELLQFCRTPNPALKNGQYWV)”, the Classification in experiment [2] is reported as 1 (A450 nm 0-1).

Take “APC—adenomatous polyposis coli protein (ESSGTQSPKRHSGSYLVTSV)”: the Classification is given as 2 (A450 nm 1-2) in experiment [2] and 4 (A450 nm 3-4) in experiment [1] (PDZ Domain 1, 2).

Source of the values: US20050282743A1, “Molecular interactions in cells” (Arbor Vita Corporation, priority 2001, published 2005).
